Measurements taken from patent US20230150974A1 (Foghorn Therapeutics Inc., priority 2020, published 2023).

Legend:
HiBiT-BRM = target: T1, HiBiT-BRM (Homo sapiens, UniProt P51531); assay: HiBiT-BRM cell-based degradation assay (Nano-Glo HiBiT Lytic Detection); conditions: HeLa cells expressing HiBiT-BRM, 24 h; for DC50: read-out: BRM HiBit Degradation IC50
T1 construct: expressed in transfected cells
Procedure, shortened: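 Luminescence from HiBiT–LgBiT complementation in lysates of a stable HiBiT-BRM HeLa line measured after 24 h compound exposure. Degradation expressed as percent relative to DMSO-treated cells and cells given 2 μM of a known BRM/BRG1 degrader.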

HiBit-BRG1 = target: T2, HiBit-BRG1 (Homo sapiens, UniProt P51532); assay: HiBit-BRG1 cell-based degradation assay (Nano-Glo HiBiT Lytic Detection); conditions: HeLa cells expressing HiBit-BRG1 and LgBit, 24 h; for DC50: read-out: BRG1 HiBit Degradation IC50; for Dmax: read-out: BRG1 HiBit Degradation Maximum (%)
T2 construct: expressed in transfected cells
Procedure, shortened: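 HeLa cells stably expressing HiBit-BRG1 plus LgBit; compound exposure 24 h; Nano-Glo HiBiT lytic luminescence; % degradation vs DMSO (0%) and 2 μM standard BRM/BRG1 degrader (100%).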

T2 sequence (P51532 whole entry): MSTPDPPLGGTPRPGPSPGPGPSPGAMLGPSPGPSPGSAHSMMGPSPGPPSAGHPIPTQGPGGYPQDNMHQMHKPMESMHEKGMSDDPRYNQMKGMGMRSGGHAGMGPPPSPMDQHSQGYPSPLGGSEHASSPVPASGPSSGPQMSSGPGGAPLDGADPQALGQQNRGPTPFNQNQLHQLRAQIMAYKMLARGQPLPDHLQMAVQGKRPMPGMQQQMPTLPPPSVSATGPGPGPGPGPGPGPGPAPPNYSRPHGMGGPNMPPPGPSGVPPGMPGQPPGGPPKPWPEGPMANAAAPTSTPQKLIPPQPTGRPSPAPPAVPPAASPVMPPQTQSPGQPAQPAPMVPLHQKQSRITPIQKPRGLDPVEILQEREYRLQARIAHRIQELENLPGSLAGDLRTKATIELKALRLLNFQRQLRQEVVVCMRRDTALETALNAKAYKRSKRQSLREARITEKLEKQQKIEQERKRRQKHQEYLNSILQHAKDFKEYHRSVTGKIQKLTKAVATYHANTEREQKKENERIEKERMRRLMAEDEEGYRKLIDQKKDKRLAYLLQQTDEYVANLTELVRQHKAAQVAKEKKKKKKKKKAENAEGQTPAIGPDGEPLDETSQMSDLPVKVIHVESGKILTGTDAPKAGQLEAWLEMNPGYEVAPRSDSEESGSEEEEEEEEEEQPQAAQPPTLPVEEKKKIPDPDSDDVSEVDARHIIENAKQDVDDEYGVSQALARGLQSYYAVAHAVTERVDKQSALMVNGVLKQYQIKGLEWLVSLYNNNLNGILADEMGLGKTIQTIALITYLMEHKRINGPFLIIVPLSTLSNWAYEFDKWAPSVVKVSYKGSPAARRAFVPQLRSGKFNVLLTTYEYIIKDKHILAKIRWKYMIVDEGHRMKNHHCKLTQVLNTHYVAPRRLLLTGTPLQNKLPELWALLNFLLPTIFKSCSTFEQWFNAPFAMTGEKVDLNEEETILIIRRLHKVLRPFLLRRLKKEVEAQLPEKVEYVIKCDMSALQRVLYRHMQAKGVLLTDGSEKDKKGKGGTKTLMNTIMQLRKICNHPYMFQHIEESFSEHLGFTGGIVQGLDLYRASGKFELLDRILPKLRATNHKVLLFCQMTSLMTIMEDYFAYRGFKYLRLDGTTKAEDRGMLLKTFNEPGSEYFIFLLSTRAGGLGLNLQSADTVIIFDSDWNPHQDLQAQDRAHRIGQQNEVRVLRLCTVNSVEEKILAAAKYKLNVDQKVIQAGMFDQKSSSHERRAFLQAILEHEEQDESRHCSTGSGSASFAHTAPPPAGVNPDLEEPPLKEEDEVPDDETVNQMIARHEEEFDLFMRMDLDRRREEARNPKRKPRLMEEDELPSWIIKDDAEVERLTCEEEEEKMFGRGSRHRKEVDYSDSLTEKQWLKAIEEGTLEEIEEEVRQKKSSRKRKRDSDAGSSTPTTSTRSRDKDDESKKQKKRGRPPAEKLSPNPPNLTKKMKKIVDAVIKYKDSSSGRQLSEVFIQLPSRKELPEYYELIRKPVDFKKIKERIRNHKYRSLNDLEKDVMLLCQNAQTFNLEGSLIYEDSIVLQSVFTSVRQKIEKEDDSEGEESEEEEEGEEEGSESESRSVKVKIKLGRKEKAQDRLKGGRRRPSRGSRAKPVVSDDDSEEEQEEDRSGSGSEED
T1 sequence (P51531 whole entry): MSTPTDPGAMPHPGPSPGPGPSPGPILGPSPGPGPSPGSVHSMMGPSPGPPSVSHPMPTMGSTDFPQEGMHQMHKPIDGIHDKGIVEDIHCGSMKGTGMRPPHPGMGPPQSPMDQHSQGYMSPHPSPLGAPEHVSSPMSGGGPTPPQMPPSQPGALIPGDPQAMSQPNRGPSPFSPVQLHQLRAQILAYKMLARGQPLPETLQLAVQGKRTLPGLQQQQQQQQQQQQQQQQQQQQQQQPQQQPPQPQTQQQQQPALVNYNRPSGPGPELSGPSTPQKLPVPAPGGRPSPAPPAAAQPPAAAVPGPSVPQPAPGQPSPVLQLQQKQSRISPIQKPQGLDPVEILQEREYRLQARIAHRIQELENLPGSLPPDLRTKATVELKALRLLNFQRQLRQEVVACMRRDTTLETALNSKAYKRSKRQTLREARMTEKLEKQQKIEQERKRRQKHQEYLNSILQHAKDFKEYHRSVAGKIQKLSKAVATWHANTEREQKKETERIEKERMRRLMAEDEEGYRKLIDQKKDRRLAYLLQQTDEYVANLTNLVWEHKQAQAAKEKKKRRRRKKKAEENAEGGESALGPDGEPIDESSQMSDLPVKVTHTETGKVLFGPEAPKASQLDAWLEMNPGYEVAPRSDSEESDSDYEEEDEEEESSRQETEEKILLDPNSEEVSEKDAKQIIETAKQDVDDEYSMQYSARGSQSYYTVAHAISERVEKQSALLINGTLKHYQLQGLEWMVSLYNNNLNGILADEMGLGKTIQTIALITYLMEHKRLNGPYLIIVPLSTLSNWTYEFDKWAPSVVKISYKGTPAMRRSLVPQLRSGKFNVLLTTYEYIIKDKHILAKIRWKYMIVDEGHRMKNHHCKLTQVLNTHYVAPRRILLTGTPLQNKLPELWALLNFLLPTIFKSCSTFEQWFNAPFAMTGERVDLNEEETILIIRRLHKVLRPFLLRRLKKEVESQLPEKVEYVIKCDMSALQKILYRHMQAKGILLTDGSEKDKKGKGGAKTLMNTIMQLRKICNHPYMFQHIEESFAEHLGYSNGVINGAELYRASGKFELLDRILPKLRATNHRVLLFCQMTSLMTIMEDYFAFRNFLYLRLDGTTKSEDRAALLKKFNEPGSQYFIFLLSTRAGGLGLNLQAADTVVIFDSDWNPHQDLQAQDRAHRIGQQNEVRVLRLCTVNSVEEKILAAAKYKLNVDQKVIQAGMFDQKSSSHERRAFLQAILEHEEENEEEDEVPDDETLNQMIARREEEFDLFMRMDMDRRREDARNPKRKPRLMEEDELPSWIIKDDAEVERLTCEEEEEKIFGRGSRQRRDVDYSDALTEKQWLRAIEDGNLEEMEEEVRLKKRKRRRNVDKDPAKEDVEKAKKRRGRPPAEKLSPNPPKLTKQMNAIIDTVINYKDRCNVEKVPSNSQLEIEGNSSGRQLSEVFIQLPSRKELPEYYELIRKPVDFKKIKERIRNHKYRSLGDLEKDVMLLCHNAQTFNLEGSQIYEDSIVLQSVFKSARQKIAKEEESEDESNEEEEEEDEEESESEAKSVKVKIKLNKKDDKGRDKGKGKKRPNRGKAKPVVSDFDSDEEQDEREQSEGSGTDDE

Row | DC50 (HiBiT-BRM) [µM] | DC50 (HiBit-BRG1) [µM] | Dmax (HiBit-BRG1) [%] | SMILES | BRM HiBit Degradation Maximum (%) (HiBiT-BRM)
1 | > 0.1 | > 1 | > 50 | Cc1ncsc1-c1ccc([C@H](C)NC(=O)[C@@H]2C[C@@H](O)CN2C(=O)[C@@H](NC(=O)CCCCCCCCCNC(=O)c2ccc(CCOc3cc(-c4ccccc4O)nnc3N)cc2)C(C)(C)C)cc1 [Compound 171, (2S,4R)-1-((S)-2-(10-(4-(2-((3-amino-6-(2-hydroxyphenyl)pyridazin-4-yl)oxy)ethyl)benzamido)decanamido)-3,3-dimethylbutanoyl)-4-hydroxy-N-((S)-1-(4-(4-methylthiazol-5-yl)phenyl)ethyl)pyrrolidine-2-carboxamide] | A (“A” indicates maximum degradation ≥75%)
2 | > 0.01 | > 0.1 | > 50 | Cc1ncsc1-c1ccc([C@H](C)NC(=O)[C@@H]2C[C@@H](O)CN2C(=O)[C@@H](NC(=O)CCCCCCCCCCCCCCCC(=O)NCc2ccc(CCOc3cc(-c4ccccc4O)nnc3N)cc2)C(C)(C)C)cc1 [Compound 172, N1-(4-(2-((3-amino-6-(2-hydroxyphenyl)pyridazin-4-yl)oxy)ethyl)benzyl)-N17-((S)-1-((2S,4R)-4-hydroxy-2-(((S)-1-(4-(4-methylthiazoi-5-yl)phenyl)ethyl)carbamoyl)pyrrolidin-1-yl)-3,3-dimethyl-1-oxobutan-2-yl)heptadecanediamide] | A (“A” indicates maximum degradation ≥75%)
3 | > 0.1 | > 1 | < 50 | Cc1ncsc1-c1ccc(CNC(=O)[C@@H]2C[C@@H](O)CN2C(=O)[C@@H](NC(=O)CCCCCCCCCCCCCCCC(=O)NCc2ccc(CCOc3cc(-c4ccccc4O)nnc3N)cc2)C(C)C)cc1 [Compound 173, N1-(4-(2-((3-amino-6-(2-hydroxyphenyl)pyridazin-4-yl)oxy)ethyl)benzyl)-N17-((S)-1-((2S,4R)-4-hydroxy-2-((4-(4-methylthiazol-5-yl)benzyl)carbamoyl)pyrrolidin-1-yl)-3-methyl-1-oxobutan-2-yl)heptadecanediamide] | B (“B” indicates maximum degradation ≥50%)
4 | > 0.01 | > 0.1 | > 75 | Cc1ncsc1-c1ccc([C@H](C)NC(=O)[C@@H]2C[C@@H](O)CN2C(=O)[C@@H](c2cc(OCCN3CCN(CC(=O)NCc4ccc(CCOc5cc(-c6ccccc6O)nnc5N)cc4)CC3)no2)C(C)C)cc1 [Compound 174, (2S,4R)-1-((R)-2-(3-(2-(4-(2-((4-(2-((3-amino-6-(2-hydroxyphenyl)pyridazin-4-yl)oxy)ethyl)benzyl)amino)-2-oxoethyl)piperazin-1-yl)ethoxy)isoxazol-5-yl)-3-methylbutanoyl)-4-hydroxy-N-((S)-1-(4-(4-methylthiazol-5-yl)phenyl)ethyl)pyrrolidine-2-carboxamide] | A (“A” indicates maximum degradation ≥75%)
5 | > 0.01 | > 0.1 | > 50 | Cc1ncsc1-c1ccc([C@H](C)NC(=O)[C@@H]2C[C@@H](O)CN2C(=O)[C@@H](c2cc(OCCN3CCN(CCC(=O)NCc4ccc(CCOc5cc(-c6ccccc6O)nnc5N)cc4)CC3)no2)C(C)C)cc1 [Compound 175, (2S,4R)-1-[(2R)-2-[3-(2-[4-[2-([[4-(2-[[3-amino-6-(2-hydroxyphenyl)pyridazin-4-yl]oxy]ethyl)phenyl]methyl]carbamoyl)ethyl]piperazin-1-yl]ethoxy)-1,2-oxazol-5-yl]-3-methylbutanoyl]-4-hydroxy-N-[(1S)-1-[4-(4-methyl-1,3-thiazol-5-yl)phenyl]ethyl]pyrrolidine-2-carboxamide] | A (“A” indicates maximum degradation ≥75%)
6 | > 0.01 | > 0.1 | > 75 | Cc1ncsc1-c1ccc([C@H](C)NC(=O)[C@@H]2C[C@@H](O)CN2C(=O)[C@@H](c2cc(OCCN3CCC(C(=O)NCc4ccc(CCOc5cc(-c6ccccc6O)nnc5N)cc4)CC3)no2)C(C)C)cc1 [Compound 176, N-(4-(2-((3-amino-6-(2-hydroxyphenyl)pyridazin-4-yl)oxy)ethyl)benzyl)-1-(2-((5-((R)-1-((2S,4R)-4-hydroxy-2-(((S)-1-(4-(4-methylthiazol-5-yl)phenyl)ethyl)carbamoyl)pyrrolidin-1-yl)-3-methyl-1-oxobutan-2-yl)isoxazol-3-yl)oxy)ethyl)piperidine-4-carboxamide] | A (“A” indicates maximum degradation ≥75%)
7 | > 0.1 | > 1 | > 75 | Cc1ncsc1-c1ccc([C@H](C)NC(=O)[C@@H]2C[C@@H](O)CN2C(=O)[C@@H](c2cc(OCCN3CCC(CC(=O)NCc4ccc(CCOc5cc(-c6ccccc6O)nnc5N)cc4)CC3)no2)C(C)C)cc1 [Compound 177, (2S,4R)-1-((R)-2-(3-(2-(4-(2-((4-(2-((3-amino-6-(2-hydroxyphenyl)pyridazin-4-yl)oxy)ethyl)benzyl)amino)-2-oxoethyl)piperidin-1-yl)ethoxy)isoxazol-5-yl)-3-methylbutanoyl)-4-hydroxy-N-((S)-1-(4-(4-methylthiazol-5-yl)phenyl)ethyl)pyrrolidine-2-carboxamide] | A (“A” indicates maximum degradation ≥75%)
8 | > 0.1 | > 0.1 | > 75 | Cc1ncsc1-c1ccc([C@H](C)NC(=O)[C@@H]2C[C@@H](O)CN2C(=O)[C@@H](c2cc(OCCN3CC(C(=O)NCc4ccc(CCOc5cc(-c6ccccc6O)nnc5N)cc4)C3)no2)C(C)C)cc1 [Compound 178, (2S,4R)-1-((R)-2-(3-(2-(3-((4-(2-((3-amino-6-(2-hydroxyphenyl)pyridazin-4-yl)oxy)ethyl)benzyl)carbamoyl)azetidin-1-yl)ethoxy)isoxazol-5-yl)-3-methylbutanoyl)-4-hydroxy-N-((S)-1-(4-(4-methylthiazol-5-yl)phenyl)ethyl)pyrrolidine-2-carboxamide] | A (“A” indicates maximum degradation ≥75%)
9 | > 1 | > 1 | < 50 | Cc1ncsc1-c1ccc(CNC(=O)[C@@H]2C[C@@H](O)CN2C(=O)[C@@H](NC(=O)CCN2CCN(CC(=O)NCc3ccc(CCOc4cc(-c5ccccc5O)nnc4N)cc3)CC2)C(C)(C)C)cc1 [Compound 179, (2S,4R)-1-[(2S)-2-(3-[4-[([[4-(2-[[3-amino-6-(2-hydroxyphenyl)pyridazin-4-yl]oxy]ethyl)phenyl]methyl]carbamoyl)methyl]piperazin-1-yl]propanamido)-3,3-dimethylbutanoyl]-4-hydroxy-N-[[4-(4-methyl-1,3-thiazol-5-yl)phenyl]methyl]pyrrolidine-2-carboxamide] | C (“C” indicates maximum degradation <50%)
10 | > 1 | > 1 | < 50 | Cc1ncsc1-c1ccc(CNC(=O)[C@@H]2C[C@@H](O)CN2C(=O)[C@@H](NC(=O)CCN2CCC(C(=O)NCc3ccc(CCOc4cc(-c5ccccc5O)nnc4N)cc3)CC2)C(C)(C)C)cc1 [Compound 180, N-(4-(2-((3-amino-6-(2-hydroxyphenyl)pyridazin-4-yl)oxy)ethyl)benzyl)-1-(3-(((S)-1-((2S,4R)-4-hydroxy-2-((4-(4-methylthiazol-5-yl)benzyl)carbamoyl)pyrrolidin-1-yl)-3,3-dimethyl-1-oxobutan-2-yl)amino)-3-oxopropyl)piperidine-4-carboxamide] | B (“B” indicates maximum degradation ≥50%)
11 | > 1 | > 1 | < 50 | Cc1ncsc1-c1ccc(CNC(=O)[C@@H]2C[C@@H](O)CN2C(=O)[C@@H](NC(=O)CCN2CCC(CC(=O)NCc3ccc(CCOc4cc(-c5ccccc5O)nnc4N)cc3)CC2)C(C)(C)C)cc1 [Compound 181, (2S,4R)-1-((S)-2-(3-(4-(2-((4-(2-((3-amino-6-(2-hydroxyphenyl)pyridazin-4-yl)oxy)ethyl)benzyl)amino)-2-oxoethyl)piperidin-1-yl)propanamido)-3,3-dimethylbutanoyl)-4-hydroxy-N-(4-(4-methylthiazol-5-yl)benzyl)pyrrolidine-2-carboxamide] | C (“C” indicates maximum degradation <50%)
12 | > 1 | > 1 | < 50 | Cc1ncsc1-c1ccc(CNC(=O)[C@@H]2C[C@@H](O)CN2C(=O)[C@@H](NC(=O)CCN2CC(C(=O)NCc3ccc(CCOc4cc(-c5ccccc5O)nnc4N)cc3)C2)C(C)(C)C)cc1 [Compound 182, (2S,4R)-1-[(2S)-2-[3-[3-([[4-(2-[[3-amino-6-(2-hydroxyphenyl)pyridazin-4-yl]oxy]ethyl)phenyl]methyl]carbamoyl)azetidin-1-yl]propanamido]-3,3-dimethylbutanoyl]-4-hydroxy-N-[[4-(4-methyl-1,3-thiazol-5-yl)phenyl]methyl]pyrrolidine-2-carboxamide] | C (“C” indicates maximum degradation <50%)
13 | > 1 | > 1 | < 50 | Cc1ncsc1-c1ccc(CNC(=O)[C@@H]2C[C@@H](O)CN2C(=O)[C@@H](NC(=O)CCN2CC(CC(=O)NCc3ccc(CCOc4cc(-c5ccccc5O)nnc4N)cc3)C2)C(C)(C)C)cc1 [Compound 183, (2S,4R)-1-[(2S)-2-(3-[3-[([[4-(2-[[3-amino-6-(2-hydroxyphenyl)pyridazin-4-yl]oxy]ethyl)phenyl]methyl]carbamoyl)methyl]azetidin-1-yl]propanamido)-3,3-dimethylbutanoyl]-4-hydroxy-N-[[4-(4-methyl-1,3-thiazol-5-yl)phenyl]methyl]pyrrolidine-2-carboxamide] | C (“C” indicates maximum degradation <50%)
